How the values were obtained:
HS-PSS [1] = assay: drug sensitivity score (DSS, CellTiter-Glo viability, 72 h) (DSS (dimensionless)); higher = more sensitive; extreme values may be limits of the assay
Procedure, shortened: (§1)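 After seeding 750–1000 cells per well of MPNST cell lines or primary human Schwann cells into 384-well plates preprinted with each compound at five concentrations in 10-fold steps, plates were kept 72 h at 37 °C, 5% CO2. Viability was read as CellTiter-Glo ATP luminescence relative to vehicle and positive-control wells, with duplicates averaged where present. The data were fitted with four-parameter logistic models. Drug sensitivity score and relative IC50, censored at the top concentration, derive from the fits, and percent inhibition refers to the top concentration.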

HS-Sch-2 [2] = assay: as above
Procedure, shortened: as §1

YST-1 [3] = assay: as above
Procedure, shortened: as §1

HS-PSS [4] = assay: drug sensitivity score (DSS, CellTox-Green cytotoxicity, 72 h) (DSS (dimensionless)); higher = more cytotoxic; extreme values may be limits of the assay
Procedure, shortened: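 For 72 h at 37 °C, MPNST cell lines and primary human Schwann cells were exposed in 384-well plates to five 10-fold compound dilutions. CellTox-Green, added before seeding at a final 1:1000 dilution, gave fluorescence from DNA released by disrupted cells. Signals were scaled to vehicle and positive-control wells, cultures failing plate quality control were left out, and four-parameter logistic fits were applied. Relative IC50 and drug sensitivity score were derived from the fits, with IC50 censored at the top concentration.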

HS-PSS [5] = assay: % inhibition of CellTiter-Glo viability at highest tested concentration (72 h), relative to DMSO and benzethonium chloride controls; higher = more inhibition
Procedure, shortened: as §1

HS-Sch-2 [6] = assay: as above
Procedure, shortened: as §1

YST-1 [7] = assay: as above
Procedure, shortened: as §1

SMILES	drug sensitivity score (HS-PSS [1])	drug sensitivity score (HS-Sch-2 [2])	drug sensitivity score (YST-1 [3])	drug sensitivity score (HS-PSS [4])	% inhibition (HS-PSS [5]) [%]	% inhibition (HS-Sch-2 [6]) [%]	% inhibition (YST-1 [7]) [%]
Cc1cc(Nc2ncc(Cl)c(Nc3ccccc3S(=O)(=O)C(C)C)n2)c(OC(C)C)cc1C1CCNCC1 [Ceritinib] (max concentration tested 2500 nM)	10.6	1.13	8.09	0.17	64.5	30.9	82.3
CCN(CC)CCCC(C)Nc1ccnc2cc(Cl)ccc12 (stereo not given) [Chloroquine] (max concentration tested 100000 nM)	18.7	17.1	9.66	9.74	102	102	102
CC(C)[C@H]1C(=O)N[C@@H](CCCNC(=N)N)C(=O)NCC(=O)N[C@@H](CC(=O)O)C(=O)N[C@H](Cc2ccccc2)C(=O)N1C [Cilengitide] (max concentration tested 10000 nM)	0	1.06	0	0	1.31	27	-3.66
N.N.[Cl][Pt][Cl] [Cisplatin] (max concentration tested 100000 nM)	13.1	23.1	13.8	9.13	86.4	100	95.9
O=C(c1ccc(F)c(F)c1Nc1ccc(I)cc1F)N1CC(O)([C@@H]2CCCCN2)C1 [Cobimetinib] (max concentration tested 1000 nM)	4.46	4.02	0	0.01	49.3	69.5	-5.92
COc1c(OCCCN2CCOCC2)ccc2c1N=C(NC(=O)c1cnc(N)nc1)N1CCN=C21 [Copanlisib] (max concentration tested 1000 nM)	1.69	7.87	17.5	0	44	70.5	92.5
CCN(CC)CCN(Cc1ccc(-c2ccc(C(F)(F)F)cc2)cc1)C(=O)Cn1c(SCc2ccc(F)cc2)nc(=O)c2c1CCC2 [Darapladib] (max concentration tested 1000 nM)	3.85	2.38	1.09	3.71	53.3	33	19.5
CC(=O)N(O)CCCCCNC(=O)CCC(=O)N(O)CCCCCNC(=O)CCC(=O)N(O)CCCCCN [Deferoxamine] (max concentration tested 10000 nM)	8.62	10.5	6.36	1	89.5	96.3	78.5
CCN(CC)C(=S)SSC(=S)N(CC)CC [Disulfiram] (max concentration tested 100000 nM)	30.6	27	30.7	8.67	101	101	101
C[C@H](Nc1ncnc2nc[nH]c12)c1cc2cccc(Cl)c2c(=O)n1-c1ccccc1 [Duvelisib] (max concentration tested 500 nM)	0	0.22	0.82	0.21	-0.01	13.6	19.5
Cc1cc(Nc2cc(N3CCN(C)CC3)nc(/C=C/c3ccccc3)n2)n[nH]1 [ENMD-2076] (max concentration tested 10000 nM)	8.13	12.1	10.8	1.84	70.5	95.5	63.9
Cc1cc(C)c(CNC(=O)c2cc(-c3ccc(CN4CCOCC4)cc3)cc3c2cnn3C2CCCC2)c(=O)[nH]1 [EPZ-5687] (max concentration tested 10000 nM)	0	0	0	0	-1.01	-5.4	1.37
COC(=O)N[C@@H](C)CNc1nccc(-c2cn(C(C)C)nc2-c2cc(Cl)cc(NS(C)(=O)=O)c2F)n1 [Encorafenib] (max concentration tested 1000 nM)	2.1	0.12	0	0	14	14.4	3.93
c1cn2cc(-c3ccc4cn[nH]c4c3)nc(Nc3ccc(N4CCOCC4)cc3)c2n1 [Entospletinib] (max concentration tested 5000 nM)	0	0.89	0.45	0.89	-4.13	-16	12
NS(=O)(=O)NCCNc1nonc1/C(=N/O)Nc1ccc(F)c(Br)c1 [Epacadostat] (max concentration tested 10000 nM)	0	0.29	0	0	6.08	13.3	12.5
CCn1c(=O)c(-c2ccc(Cl)cc2Cl)cc2cnc(Nc3ccc(N4CCNCC4)c(F)c3)nc21 [FRAX486] (max concentration tested 5000 nM)	3.36	9.15	0	0	11.5	47.6	-6.01
Cc1cnc(Nc2ccc(OCCN3CCCC3)cc2)nc1Nc1cccc(S(=O)(=O)NC(C)(C)C)c1 [Fedratinib] (max concentration tested 10000 nM)	9.41	10.8	8.29	3.87	96.5	102	87.1
CON(C)C(=O)N1N=C(c2cc(F)ccc2F)S[C@@]1(CCCN)c1ccccc1 [Filanesib] (max concentration tested 1000 nM)	7.81	29.1	25.7	0	29	88.7	78.3

SMILES	drug sensitivity score (HS-PSS [1])	drug sensitivity score (HS-Sch-2 [2])	drug sensitivity score (YST-1 [3])	drug sensitivity score (HS-PSS [4])	% inhibition (HS-PSS [5]) [%]	% inhibition (HS-Sch-2 [6]) [%]	% inhibition (YST-1 [7]) [%]
O=C(Nc1nc2cccc(-c3ccc(CN4CCS(=O)(=O)CC4)cc3)n2n1)C1CC1 [Filgotinib] (max concentration tested 10000 nM)	0.09	2.01	1.97	0	14.3	35.7	45.2
COc1cc(Nc2ncc(F)c(Nc3ccc4c(n3)N(COP(=O)(O)O)C(=O)C(C)(C)O4)n2)cc(OC)c1OC [Fostamatinib] (max concentration tested 2500 nM)	2.95	2.96	4.22	0	40.4	36	67.3
O=C(NOCCO)c1ccc2cncn2c1Nc1ccc(I)cc1F [GDC-0623] (max concentration tested 2500 nM)	3.76	5.27	0	0.89	37.1	55	6.24
Cn1nccc1Nc1nccc(-c2ccn([C@H](CO)c3ccc(Cl)c(F)c3)c(=O)c2)n1 [GDC-0994] (max concentration tested 10000 nM)	0	5.84	1.37	0	8.18	92.6	40
CNc1nc(Nc2cn(C(C)(C)C#N)nc2C)ncc1C(F)(F)F [GNE-0877] (max concentration tested 1000 nM)	2.29	0	0	0	23.4	5.3	-4.9
CCNc1nc(Nc2cc(F)c(C(=O)N3CCOCC3)cc2OC)ncc1C(F)(F)F [GNE-7915] (max concentration tested 1000 nM)	0	0.19	0	0	8.52	12.4	0.1
CCCOc1ccn2c(C(C)=O)cc(-c3ccccc3S(C)(=O)=O)c2c1 [GSK2801] (max concentration tested 10000 nM)	0	0	0	0	0.71	-6.2	0.58
C[C@H]1C=C2C(=O)O[C@H]3CC[C@@H](C1)[C@@]23O [Galiellalactone] (max concentration tested 25000 nM)	3.82	7.88	2.78	0	58.6	93.5	64.8
CN(C)C1CCN(C(=O)c2ccc(NC(=O)Nc3ccc(-c4nc(N5CCOCC5)nc(N5CCOCC5)n4)cc3)cc2)CC1 [Gedatolisib] (max concentration tested 1000 nM)	17.4	12	19.4	0	73.4	80.3	93.2
CCN(CC)Cc1ccc2cc(COC(=O)Nc3ccc(C(=O)NO)cc3)ccc2c1 [Givinostat] (max concentration tested 1000 nM)	3.45	8.81	13.1	1.98	69.4	98	98.9
CN1CC[C@@H](NC(=O)Nc2ccc(C#N)cc2)C[C@@H]1c1nc2ccccc2[nH]1 [Glasdegib] (max concentration tested 1000 nM)	2.26	1.4	0	0	21.2	20.6	1.47
CN1CCN(C2CCN(C(=O)Nc3cc(Oc4ccc(NC(=O)C5(C(=O)Nc6ccc(F)cc6)CC5)c(F)c4)ccn3)CC2)CC1 [Golvatinib] (max concentration tested 2500 nM)	0.68	0.68	1.35	0	23.6	19.2	17.2
O=S(=O)(c1cccc2c(O)nccc12)N1CCCNCC1 [Hydroxyfasudil] (max concentration tested 37500 nM)	1.21	1.47	0.03	0	19.5	21.6	12.7
O=C(O)c1ccc(O)c2ncccc12 [IOX-1] (max concentration tested 100000 nM)	0	0.26	2.03	0	1.4	18.7	46
O=C(Nc1nc2ccccc2n1CCN1CCOCC1)c1cccc([N+](=O)[O-])c1 [IRAK1/4 inhibitor] (max concentration tested 25000 nM)	0	0	0	0	3.76	-2.86	6.78
C#Cc1cccc(Nc2ncnc3cc4c(cc23)OCCOCCOCCO4)c1 [Icotinib] (max concentration tested 10000 nM)	0.72	1.37	1.96	0	16.4	19.6	23.8
COc1cc(C(=O)O)ccc1NC(=O)[C@@H]1N[C@@H](CC(C)(C)C)[C@](C#N)(c2ccc(Cl)cc2F)[C@H]1c1cccc(Cl)c1F [Idasanutlin] (max concentration tested 10000 nM)	5.43	0	25.1	0	26.1	-12.1	98.6

Reference: the supplement of paper PMC5579334
